# Where two headings read alike, the source gives them in different places.
# What was measured:
# [1] = test system: peripheral blood mononuclear cells (PBMCs); test: Single cell gel electrophoresis (comet) assay of DNA strand breaks; assay type: in vivo, human; conditions: 1 hour post first dose, across all doses
# Protocol: Analysis of the ability of TP300 to induce DNA strand breaks was performed on peripheral blood mononuclear cells (PBMCs), pre-dose, 1, 3 and 24 hours post cycle 1. A validated single cell gel electrophoresis (comet) assay was used to assess DNA single-strand breaks. An average of 50 PBMC cells/time-point were analysed and the tail moment (TM) calculated, as the product of the percentage of DNA in the comet tail and the distance between head and tail distributions; higher TM values reflect greater DNA strand breakage. Statistical analyses were not performed due to the limited number of subjects/samples per cohort.
# [2] = Single and repeat dose toxicity studies (preclinical); assay type: in vivo; conditions: most sensitive of the two species tested; equals 6 mg/m^2
# Protocol: (§1) The starting dose of 1 mg/m^2 was derived from single and repeat dose toxicity studies and represented one sixth of 0.3 mg/kg (6 mg/m^2), a dose tolerated without evidence of serious, irreversible or life-threatening toxicity in the most sensitive of the two species tested. Doses were doubled in subsequent cohorts until grade ≥2 toxicity was observed, whereupon a modified Fibonacci dose escalation scheme was used. In each cohort the first patient was required to complete 1 cycle before subsequent patients were entered. Intra-patient dose-escalation was not allowed.
# [3] = Phase I dose escalation of TP300: toxicity (CTCAE v3.0), DLT, MTD; assay type: in vivo, human
# Protocol: TP300 was given as a 1-hour intravenous (i.v.) infusion, by peripheral venous catheter, every 3 weeks.
# as §1
# The MTD was the dose level below that at which ≥ 2 out of 3–6 patients experienced a DLT. Radiologic assessment of disease was performed every 2 cycles. Patients could remain on treatment if there was evidence of clinical benefit but were withdrawn from the study upon clinical or radiologic progression, unacceptable toxicity or withdrawal of consent.
# Toxicity was assessed weekly and graded using the National Cancer Institute Common Toxicity Criteria (CTCAE) version 3.0. DLT was defined as the occurrence of any of the following adverse events: grade 4 thrombocytopenia; febrile neutropenia or grade 4 neutropenia > 5 days duration; grade 4 diarrhoea not reduced to grade 1 within 2 days of appropriate therapy; other gastro-intestinal toxicities (e.g. vomiting, nausea, stomatitis) ≥ grade 3 and not reduced to grade 1 within 2 days of appropriate therapy; any other non-haematologic toxicities ≥ grade 3 (excluding alopecia).
# [4] = test system: range of tumour types in vitro; set-up: method as in PMID 19495753; conditions: cited from earlier work
# [5] = Plasma and urine pharmacokinetics after TP300 infusion (LC-MS/MS, non-compartmental); assay type: in vivo, human; conditions: for concentration at 1 h: human, in vivo, read-out: Plasma TP300 concentration 1 h after administration, mean
# Protocol: Venous blood (3 mL) was taken into sodium heparin tubes containing 30 μL of 46% citric acid, centrifuged 1500g at 4°C for 10 min and 1 mol/L hydrochloric acid was added (1:10) to plasma from each subject at 10 time points during cycle 1 (pre dose, then 1, 1.25, 1.5, 2, 3, 5, 8, 24, 48 hours after the start of administration) and stored at −70°C. Samples were processed by extraction of protein using addition of organic solvent containing internal standards and assayed by LC-MS/MS with a robust, sensitive and validated method for the simultaneous determination of a novel topoisomerase 1 inhibitor CH0793076 (TP3076), the prodrug CH4556300 (TP300), and the active metabolite CH0793011 (TP3011). All plasma had been acidified during collection to avoid the pH-based degradation of TP300 and to shift the equilibria of TP3076 and TP3011 between the lactone and carboxylate forms towards the lactone forms. After the plasma proteins were precipitated with methanol:acetonitrile:HCl 1M (50:50:1, v:v:v) containing stable isotopic internal standards, the analytes were trapped on an Xterra MS C18 column (10×2.1 mm i.d., 5 μm) and separated on a Gemini C18 column (50×2.0 mm i.d., 5 μm) using column-switching liquid chromatography. Electrospray ionization in the positive-ion mode and multiple reaction monitoring were used to quantify the analytes with transitions m/z 587.2>441.2 for TP300, 459.1>415.2 for 3076, and 475.1>361.1 for 3011. The inter- and intra-day precisions were below 12%, and the accuracy was between −16% and 16% at the lower limit of quantitation (LLOQ) and between −11% and 14% at the other quality controls. The LLOQs of TP300, TP3076, and TP3011 were 0.8, 0.04, and 0.04 ng/mL, respectively.
# Pharmacokinetic parameters derived from plasma concentration-time data of TP3076 or TP3011 by non-compartmental methods using WinNonlin (version 5.1; Pharsight Corp), included maximal plasma concentration (Cmax) and time of Cmax (Tmax), apparent plasma elimination half-life (t1/2), and the area under the curve (AUC). The urinary excretion ratio (fe) of TP3076 and TP3011 was calculated from the urinary concentration and volume up to 48 hours after administration, and the administration dose. The linearity of Cmax and AUC was determined with linear regression, analysis of variance and power model analysis. The sum of the AUCs of TP3076 and TP3011 was plotted against percentage (%) fall in nadir neutrophil count to explore the relationship between exposure and myelosuppression as a measure of anti-proliferative effect and a sigmoid Emax model fitted to the data: […]
# [6] = suspected treatment related adverse events within cycle 1, N = 32, all doses 1-12 mg/m^2
smiles,measurement,setting,value
"CCCCCN1C=Nc2cccc3nc4c(c1c23)Cn1c-4cc2c(c1=O)COC(=O)[C@@]2(CC)OC(=O)CN(C)C(=O)CN [TP300, glycine,glycyl-N-methyl-,(9S)-9-ethyl-9,10,13,15-tetrahydro-10,13-dioxo-1-pentyl-1H,12H-pyrano[3'',4'':6′,7′]indolizino[2′,1′:5,6]pyrido[4,3,2-de]quinazolin-9-yl ester, hydro-chloride]",increase of DNA strand breaks vs pre-treatment,[1],approximately 2 fold
same,mean tail moment (TM),[1]; pre-treatment mean 0.69,1.65
same,"dose tolerated without evidence of serious, irreversible or life-threatening toxicity",[2],0.3 mg/kg
same,DLTs (patients with DLT / patients dosed),[3]; 10 mg/m^2,3/12
same,DLTs (patients with DLT / patients dosed),[3]; 12 mg/m^2,2/4
same,MTD (maximum tolerated dose),"[3]; 1-hour i.v. infusion 3-weekly, patients with advanced solid tumors",10 mg/m^2
same,worst grade of diarrhoea,"[3]; 8 patients developed diarrhoea, all doses",≤ 2 grade
same,"time to diarrhoea after TP300 treatment, average",[3]; 8 patients with diarrhoea,9.5 days
same,"time to diarrhoea after TP300 treatment, range",[3]; 8 patients with diarrhoea,1 to 27 days
same,cholinergic effects,"[3]; 32 patients, all doses",no patient experienced cholinergic effects
same,patients discontinued due to toxicity,"[3]; 32 patients, all doses",4 patients
same,treatment-related deaths,"[3]; 32 patients, all doses",no treatment-related deaths
same,recommended Phase II starting dose,[3]; cycle 1,8 mg/m^2
same,recommended Phase II dose on subsequent cycles,[3]; escalation if initial treatment is well tolerated,10 mg/m^2
same,"Anaemia, All grade",[3]; [6],6 ( 19) No. (%)
same,"Anaemia, Grade 3",[3]; [6],2 ( 6) No. (%)
same,"Back pain, All grade",[3]; [6],1 ( 3) No. (%)
same,"Back pain, Grade 3",[3]; [6],1 ( 3) No. (%)
same,"Chills, All grade",[3]; [6],2 ( 6) No. (%)
same,"Chills, Grade 3",[3]; [6],1 ( 3) No. (%)
same,"Diarrhea, All grade",[3]; [6],8 ( 25) No. (%)
same,"Diarrhea, Grade 3",[3]; [6],0 (0) No. (%)
same,"Dyspnoea, All grade",[3]; [6],1 ( 3) No. (%)
same,"Dyspnoea, Grade 3",[3]; [6],1 ( 3) No. (%)
same,"Febrile neutropenia, All grade",[3]; [6],2 ( 6) No. (%)
same,"Febrile neutropenia, Grade 3",[3]; [6],2 ( 6) No. (%)
same,"Hepatorenal failure, All grade",[3]; [6],1 ( 3) No. (%)
same,"Hepatorenal failure, Grade 3",[3]; [6],1 ( 3) No. (%)
same,"Lethargy, All grade",[3]; [6],12 ( 38) No. (%)
same,"Lethargy, Grade 3",[3]; [6],4 ( 13) No. (%)
same,"Leukopenia, All grade",[3]; [6],3 ( 9) No. (%)
same,"Leukopenia, Grade 3",[3]; [6],3 ( 9) No. (%)
same,"Nausea, All grade",[3]; [6],13 ( 41) No. (%)
same,"Nausea, Grade 3",[3]; [6],0 (0) No. (%)
same,"Neutropenia, All grade",[3]; [6],6 ( 19) No. (%)
same,"Neutropenia, Grade 3",[3]; [6],6 ( 19) No. (%)
same,"Neutropenic sepsis, All grade",[3]; [6],1 ( 3) No. (%)
same,"Neutropenic sepsis, Grade 3",[3]; [6],1 ( 3) No. (%)
same,"Syncope, All grade",[3]; [6],1 ( 3) No. (%)
same,"Syncope, Grade 3",[3]; [6],1 ( 3) No. (%)
same,"Thrombocytopenia, All grade",[3]; [6],3 ( 9) No. (%)
same,"Thrombocytopenia, Grade 3",[3]; [6],3 ( 9) No. (%)
same,"Vomitting, All grade",[3]; [6],9 ( 28) No. (%)
same,"Vomitting, Grade 3",[3]; [6],0 (0) No. (%)
same,activity across a range of tumour types in vitro,[4],activity at nanomolar concentrations
same,measured plasma concentrations 1.5 h after dose,"[5]; all doses, LLOQ of TP300 0.8 ng/mL",below the limit of the quantification
same,concentration at 1 h,[5]; TP300 2 mg/m^2,3.48 ng/mL
same,concentration at 1 h,[5]; TP300 8 mg/m^2,2.34 ng/mL
same,concentration at 1 h,[5]; TP300 10 mg/m^2,7.37 ng/mL
same,concentration at 1 h,[5]; TP300 12 mg/m^2,18.4 ng/mL

# — PMC3517777, “Phase I study of TP300 in patients with advanced solid tumors with pharmacokinetic, pharmacogenetic and pharmacodynamic analyses” (BMC Cancer, 2012)
